test: Inhibition of tubulin polymerization assessed as turbidity by microtubule assembly assay

Q: For `CC(C)[C@@H]1NC(=O)[C@H](NC(=O)[C@H](Cc2ccc(O)cc2)NC(=O)[C@@H]2CCCN2C(=O)[C@@H]2CCC(=O)N2)n2cc(c3ccccc32)C[C@@H](C(=O)N[C@@H](CCCCN)C(=O)O)NC(=O)[C@H](CO)NC(=O)[C@H](Cc2ccccc2)NC1=O` [CELOGENAMIDE A], which IC50 is on record?
A: > 100 µM

Q: Which IC50 does the source give for `COC(=O)[C@@H]1Cc2cn(c3ccccc23)[C@@H](NC(=O)[C@H](Cc2ccc(O)cc2)NC(=O)[C@@H]2CCCN2C(=O)[C@@H]2CCC(=O)N2)C(=O)N[C@@H](C(C)C)C(=O)N[C@@H](Cc2ccccc2)C(=O)N[C@@H](CO)C(=O)N1` [LYCIUMIN C] here?
A: > 100 µM

Q: With `COC(=O)[C@@H]1Cc2cn(c3ccccc23)[C@@H](NC(=O)[C@H](Cc2ccc(O)cc2)NC(=O)[C@@H]2CCCN2C(=O)[C@@H]2CCC(=O)N2)C(=O)N[C@@H](C(C)C)C(=O)NCC(=O)N[C@@H](CO)C(=O)N1` [LYCLUMIN A] as the compound, how does the IC50 read?
A: > 100 µM

Source: ChEMBL document CHEMBL1148913, “Celogenamide A, a new cyclic peptide from the seeds of Celosia argentea” (J Nat Prod, 2004)
